Experimental data reported in patent publication US20130303509A1, “NAMPT INHIBITORS” (AbbVie Inc., priority 2012, published 2013).

tested on: PC3 cells; assay: NAMPT Cell Proliferation Assay; assay type: cell-based; conditions: Homo sapiens, PC-3, 120 h, 5 days incubation, cell viability by Cell Titer Glo
Summary of the method: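 Seeded at 500 cells/well in RPMI with 10% heat-inactivated FBS and left to attach overnight at 37° C, 5% CO2. Compounds were added as 10-fold dilutions […] for 5 days, then viability was read by CellTiter-Glo. IC50s came from sigmoidal fits of percent inhibition.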

IC50	SMILES
0.16 nM	O=C(Nc1ccc(C2CCN(C(=O)c3ccco3)CC2)cc1)C1CN(c2cccnc2)C1 [Example 129, N-{4-[1-(furan-2-ylcarbonyl)piperidin-4-yl]phenyl}-1-(pyridin-3-yl)azetidine-3-carboxamide]
1.81 nM	O=C(Nc1ccc(C2CCN(C(=O)CCN3CCCCC3)CC2)cc1)C1CN(c2cccnc2)C1 [Example 130, N-(4-{1-[3-(piperidin-1-yl)propanoyl]piperidin-4-yl}phenyl)-1-(pyridin-3-yl)azetidine-3-carboxamide]
0.3 nM	CCOCC(=O)N1CCC(c2ccc(NC(=O)C3CN(c4cccnc4)C3)cc2)CC1 [Example 131, N-{4-[1-(ethoxyacetyl)piperidin-4-yl]phenyl}-1-(pyridin-3-yl)azetidine-3-carboxamide]
0.23 nM	CC(C)(C)CC(=O)N1CCC(c2ccc(NC(=O)C3CN(c4cccnc4)C3)cc2)CC1 [Example 132, N-{4-[1-(3,3-dimethylbutanoyl)piperidin-4-yl]phenyl}-1-(pyridin-3-yl)azetidine-3-carboxamide]
0.62 nM	CCC(C)(C)C(=O)N1CCC(c2ccc(NC(=O)C3CN(c4cccnc4)C3)cc2)CC1 [Example 133, N-{4-[1-(2,2-dimethylbutanoyl)piperidin-4-yl]phenyl}-1-(pyridin-3-yl)azetidine-3-carboxamide]
0.64 nM	CCCC(=O)N1CCC(c2ccc(NC(=O)C3CN(c4cccnc4)C3)cc2)CC1 [Example 134, N-[4-(1-butanoylpiperidin-4-yl)phenyl]-1-(pyridin-3-yl)azetidine-3-carboxamide]
0.3 nM	COCC(=O)N1CCC(c2ccc(NC(=O)C3CN(c4cccnc4)C3)cc2)CC1 [Example 135, N-{4-[1-(methoxyacetyl)piperidin-4-yl]phenyl}-1-(pyridin-3-yl)azetidine-3-carboxamide]
0.23 nM	O=C(Nc1ccc(C2CCN(C(=O)C3CCCCC3)CC2)cc1)C1CN(c2cccnc2)C1 [Example 136, N-{4-[1-(cyclohexylcarbonyl)piperidin-4-yl]phenyl}-1-(pyridin-3-yl)azetidine-3-carboxamide]
0.31 nM	CC(C)CC(=O)N1CCC(c2ccc(NC(=O)C3CN(c4cccnc4)C3)cc2)CC1 [Example 137, N-{4-[1-(3-methylbutanoyl)piperidin-4-yl]phenyl}-1-(pyridin-3-yl)azetidine-3-carboxamide]
0.23 nM	O=C(Nc1ccc(C2CCN(C(=O)C3CCCC3)CC2)cc1)C1CN(c2cccnc2)C1 [Example 138, N-{4-[1-(cyclopentylcarbonyl)piperidin-4-yl]phenyl}-1-(pyridin-3-yl)azetidine-3-carboxamide]
0.18 nM	CC(C)C(C)C(=O)N1CCC(c2ccc(NC(=O)C3CN(c4cccnc4)C3)cc2)CC1 (stereo not drawn) [Example 139, N-{4-[1-(2,3-dimethylbutanoyl)piperidin-4-yl]phenyl}-1-(pyridin-3-yl)azetidine-3-carboxamide]
3.54 nM	CC(C)(C)CC(=O)N1CCC(c2ccc(NC(=O)C3CN(c4ccnnc4)C3)cc2)CC1 [Example 140, N-{4-[1-(3,3-dimethylbutanoyl)piperidin-4-yl]phenyl}-1-(pyridazin-4-yl)azetidine-3-carboxamide]
834 nM	CC(C)(O)C(=O)N1CCC(c2ccc(NC(=O)[C@H]3CCN(c4ccnnc4)C3)cc2)CC1 [Example 141, (3S)—N-{4-[1-(2-hydroxy-2-methylpropanoyl)piperidin-4-yl]phenyl}-1-(pyridazin-4-yl)pyrrolidine-3-carboxamide]
741 nM	O=C(Nc1ccc(C2CCN(C(=O)CC3CCCC3)CC2)cc1)[C@H]1CCN(c2ccnnc2)C1 [Example 142, (3S)—N-{4-[1-(cyclopentylacetyl)piperidin-4-yl]phenyl}-1-(pyridazin-4-yl)pyrrolidine-3-carboxamide]
4.96 nM	CC[C@H](C)C(=O)N1CCC(c2ccc(NC(=O)C3CN(c4ccnnc4)C3)cc2)CC1 [Example 143, N-(4-{1-[(2S)-2-methylbutanoyl]piperidin-4-yl}phenyl)-1-(pyridazin-4-yl)azetidine-3-carboxamide]
18.4 nM	O=C(Nc1ccc(C2CCN(C(=O)CC3CCCC3)CC2)cc1)C1CN(c2ccnnc2)C1 [Example 144, N-{4-[1-(cyclopentylacetyl)piperidin-4-yl]phenyl}-1-(pyridazin-4-yl)azetidine-3-carboxamide]
70.9 nM	O=C(Nc1ccc(C2CCN(C(=O)CC3CCOCC3)CC2)cc1)C1CN(c2ccnnc2)C1 [Example 145, 1-(pyridazin-4-yl)-N-{4-[1-(tetrahydro-2H-pyran-4-ylacetyl)piperidin-4-yl]phenyl}azetidine-3-carboxamide]
70.7 nM	O=C(Nc1ccc(C2CCN(C(=O)C3CCOCC3)CC2)cc1)C1CN(c2ccnnc2)C1 [Example 146, 1-(pyridazin-4-yl)-N-{4-[1-(tetrahydro-2H-pyran-4-ylcarbonyl)piperidin-4-yl]phenyl}azetidine-3-carboxamide]
0.95 nM	CC(C)C(=O)N1CCC(c2ccc(NC(=O)C3CN(c4cccnn4)C3)cc2)CC1 [Example 147, N-{4-[1-(2-methylpropanoyl)piperidin-4-yl]phenyl}-1-(pyridazin-3-yl)azetidine-3-carboxamide]
76.1 nM	CC(C)Cn1cc(-c2ccc(NC(=O)C3CN(c4ccnnc4)C3)cc2)cn1 [Example 148, N-{4-[1-(2-methylpropyl)-1H-pyrazol-4-yl]phenyl}-1-(pyridazin-4-yl)azetidine-3-carboxamide]
58 nM	Cc1ncccc1N1CC(C(=O)Nc2ccc(C3CCN(C(=O)c4ccccc4)CC3)cc2)C1 [Example 149, N-[4-(1-benzoylpiperidin-4-yl)phenyl]-1-(2-methylpyridin-3-yl)azetidine-3-carboxamide]
58.9 nM	Cc1ncccc1N1CC(C(=O)Nc2ccc(C3CCN(C(=O)c4ccccc4F)CC3)cc2)C1 [Example 150, N-{4-[1-(2-fluorobenzoyl)piperidin-4-yl]phenyl}-1-(2-methylpyridin-3-yl)azetidine-3-carboxamide]
60.9 nM	Cc1ncccc1N1CC(C(=O)Nc2ccc(C3CCN(C(=O)c4ccccc4Cl)CC3)cc2)C1 [Example 151, N-{4-[1-(2-chlorobenzoyl)piperidin-4-yl]phenyl}-1-(2-methylpyridin-3-yl)azetidine-3-carboxamide]
116 nM	Cc1ncccc1N1CC(C(=O)Nc2ccc(C3CCN(C(=O)c4cccc(F)c4)CC3)cc2)C1 [Example 152, N-{4-[1-(3-fluorobenzoyl)piperidin-4-yl]phenyl}-1-(2-methylpyridin-3-yl)azetidine-3-carboxamide]
699 nM	Cc1ncccc1N1CC(C(=O)Nc2ccc(C3CCN(C(=O)c4cccc(Cl)c4)CC3)cc2)C1 [Example 153, N-{4-[1-(3-chlorobenzoyl)piperidin-4-yl]phenyl}-1-(2-methylpyridin-3-yl)azetidine-3-carboxamide]
803 nM	Cc1ncccc1N1CC(C(=O)Nc2ccc(C3CCN(C(=O)c4cc(Cl)cc(Cl)c4)CC3)cc2)C1 [Example 154, N-{4-[1-(3,5-dichlorobenzoyl)piperidin-4-yl]phenyl}-1-(2-methylpyridin-3-yl)azetidine-3-carboxamide]
701 nM	Cc1ncccc1N1CC(C(=O)Nc2ccc(C3CCN(C(=O)c4ccc(F)cc4)CC3)cc2)C1 [Example 155, N-{4-[1-(4-fluorobenzoyl)piperidin-4-yl]phenyl}-1-(2-methylpyridin-3-yl)azetidine-3-carboxamide]
